How the values were obtained:
[1] = system: E. cloacae clinical strain B340; experiment: Tolerance Diffusion test (TDtest), strain B340; type: cell-based; details: ampicillin disk replaced with glucose disk after 18 hours, read at 36 hours
Protocol: (§1) 2 Disc Test (TDtest) Procedure
(§2) The TDtest consists of two steps:
(§3) Step I—Incubation with Antibiotics:
(§4) Circa 10^7 bacteria at stationary phase (100 microliter) were plated on LBL nutrient agar plate. An antibiotic disc was placed on the agar. The plate with the antibiotic disc was incubated for at least 4 hours and up to 30 hours, preferably about 18 hours at 37° C.
(§5) The amount of antibiotics in each disk was adjusted to reach a concentration below the MIC in the inhibition zone after an overnight incubation at 37° C. Many commercial disks contain antibiotics in amounts that are too high for the concentration to fall below the MIC after this time. When this was the case, custom disks were prepared as specified herein below.
(§6) Step II—Incubation with Nutrient:
(§7) This step was carried out in one of the following protocols:
(§8) a. The antibiotic disk was replaced with a nutrient (i.e. 2 mg glucose) disk at the end of the antibiotic incubation time. The plate was incubated again for an additional overnight (at least 5 hours and up to 24 hours, preferably about 18 hours) at 37° C.
(§9) b. Nutrient solution (i.e., 2 mg glucose, or 5 microliter of 40% glucose solution) was added directly on the antibiotic disk, instead of replacing it.
(§10) c. Two phases disk was prepared, by impregnating 6 mg glucose on the upper side of the disk.
After the completion of the above steps, the growth of the bacteria was visually inspected. […]

[2] = system: E. coli tolerant strain tbl3a; experiment: Tolerance Diffusion test (TDtest), strain tbl3a; type: cell-based
Protocol: as §1, §2, §3, §4, §5, §6, §7, §8
b. […]
Tolerant bacteria are identified by the use of two different TDtest methods, the two-disks TDtest and the single disk TDtest. […] The growth of the bacterium was monitored at several time points (0, 8, 17, 30 and 36 hours from the beginning of the test).

tbl5a = experiment: Tolerance Diffusion test (TDtest), strain tbl5a, three growth media; type: cell-based, E. coli; details: after second step, LB agar, Mueller-Hinton agar, Mueller-Hinton+5% Blood agar
Protocol: FIG. 13A-13C show TDtest performed on three different growth media. The results are shown after the second step of TDtest examining the effect of ampicillin on tbl5a.
FIG. 13A is a LB agar plate.
FIG. 13B is a Mueller-Hinton agar plate.
FIG. 13C is a Mueller-Hinton+5% Blood agar plate.
as §1, §2, §3, §4, §5, §6, §7, §8
b. […]

tbl3a = experiment: Time-kill experiment in liquid culture, tbl3a; type: cell-based, E. coli; details: for fraction of survivals: antibiotic 100 microgram/ml, after 2.6 hours
Protocol: (§11) Overnight bacterial cultures were diluted 1:100 in fresh medium containing antibiotic and incubated at 37° C. for designated time. Bacterial survival was determined by the most probable number-counting method (MPN), as described in Hurley, M. A. & Roscoe, M. E. Automated Statistical-Analysis of Microbial Enumeration by Dilution Series. J Appl. Bacteriol. 55:159-164 (1983).
These findings were verified by measuring the survival of tbl3a in liquid culture after exposure to the two antibiotics. An overnight culture was diluted and exposed either to ampicillin (100 microgram/ml) or kanamycin (100 microgram/ml). […] The large fraction of survivals in Ampicillin (12% after 2.6 hours) was predicted by the late colonies appearance, and is absent in Kanamycin (1.4E-8% after 2.6 hours).

many species = details: in many species; cited from earlier work
[3] = system: E. coli clinical strain W574; experiment: Tolerance Diffusion test (TDtest), strain W574; type: cell-based; details: ertapenem disk (0.25 microgram), glucose disk in step II
Protocol: as §1, §2, §3, §4, §5, §6, §7, §8, §9, §10
(§12) After the completion of the above steps, the growth of the bacteria was visually inspected.

[4] = system: E. coli clinical strain U453; experiment: Tolerance Diffusion test (TDtest), strain U453; type: cell-based; details: ertapenem disk (0.25 microgram), glucose disk in step II
Protocol: as §1, §2, §3, §4, §5, §6, §7, §8, §9, §10, §12

E. coli strain U453 = experiment: MIC, strain U453; type: cell-based; details: Escherichia coli
E. coli strain W574 = experiment: MIC, strain W574; type: cell-based; details: Escherichia coli
[5] = system: E. coli strains W574 and U453; experiment: Survival fraction in liquid culture, W574 versus U453; type: cell-based; details: ertapenem 10 microgram/ml
Protocol: as §11

[6] = at 12 hours after 1 gram dosing; cited from earlier work

CC1(C)S[C@@H]2[C@H](NC(=O)[C@H](N)c3ccccc3)C(=O)N2[C@H]1C(=O)O [ampicillin]
tolerance by TDtest (colonies in inhibition zone) [1]: tolerant
bacterial colonies in TDtest plate ([2]; after 36 hours, two-disks TDtest (glucose disk after 18 hours) or single disk TDtest): bacterial colonies are well seen
tolerance by TDtest ([2]; ampicillin 10 microgram or kanamycin 15 microgram disk): very tolerant
tolerance level by TDtest (tbl5a): medium tolerance (“medium tolerance” is 10 to a few hundred colonies in the inhibition zone)
survival fraction under ampicillin relative to kanamycin (tbl3a; 100 microgram/ml each): three orders of magnitude lower
fraction of survivals (tbl3a): 12%
MIC (many species): around 4 microgram/ml

C[C@@H](O)[C@H]1C(=O)N2C(C(=O)O)=C(S[C@@H]3CN[C@H](C(=O)Nc4cccc(C(=O)O)c4)C3)[C@H](C)[C@H]12 [ertapenem]
tolerance level by TDtest (colonies inside the inhibition zone after step II) [3]: high tolerance
tolerance level by TDtest (colonies inside the inhibition zone after step II) [4]: low tolerance
MIC (E. coli strain U453): < 0.05 µg/mL
MIC (E. coli strain W574): < 0.05 µg/mL
fraction of survival of a liquid culture, W574 versus U453 [5]: higher tolerance
mean serum concentration [6]: ~10 microgram/ml

NC[C@H]1O[C@H](O[C@H]2[C@H](O)[C@@H](O[C@H]3O[C@H](CO)[C@@H](O)[C@H](N)[C@H]3O)[C@H](N)C[C@@H]2N)[C@H](O)[C@@H](O)[C@@H]1O [kanamycin]
fraction of survivals (tbl3a): 1.4E-8%

Reference: US10889847B2, “Kit and discs for use in disc diffusion antibiotic sensitivity testing” (YISSUM RESEARCH DEVELOPMENT COMPANY OF THE HEBREW …, priority 2015, dated 2021)
